PMC12311729, “Probing the Mechanism of L‑DOPA 2,3-Dioxygenase Using Synthetic Derivatives of 3,4-Dihydroxyhydrocinnamic Acid” (ACS Omega, 2025)

Assays:
[1] = molecular target: L-DOPA 2,3-dioxygenase from S. lincolnensis (LmbB1) (Streptomyces lincolnensis, UniProt Q54354); design: method as in Biochemistry 2021, 60, 32, 2492–2507; details: percentage of L-DOPA; ref Biochemistry 2021, 60, 32, 2492–2507; cited from earlier work
[2] = design: method as in Biochemistry 2021, 60, 32, 2492–2507; details: ref Biochemistry 2021, 60, 32, 2492–2507, cited from earlier work; for Catecholic pKa value relative to L-DOPA x 100: percentage of L-DOPA
[3] = design: method as in Biochemistry 2021, 60, 32, 2492–2507; details: percentage of L-DOPA; ref Biochemistry 2021, 60, 32, 2492–2507; cited from earlier work
[4] = molecular target: L-DOPA 2,3-dioxygenase from S. hygroscopicus jingganensis (ShjDDO) (Streptomyces hygroscopicus, UniProt H2JL11); design: method as in Biochemistry 2021, 60, 32, 2492–2507; details: percentage of L-DOPA; ref Biochemistry 2021, 60, 32, 2492–2507; cited from earlier work
Sequence of L-DOPA 2,3-dioxygenase from S. hygroscopicus jingganensis (ShjDDO) (H2JL11 1-162): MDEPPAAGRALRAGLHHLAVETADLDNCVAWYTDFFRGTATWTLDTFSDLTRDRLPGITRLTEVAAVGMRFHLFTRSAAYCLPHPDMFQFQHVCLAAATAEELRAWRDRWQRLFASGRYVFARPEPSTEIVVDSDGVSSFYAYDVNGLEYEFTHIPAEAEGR

[5] = design: method as in Biochemistry 2021, 60, 32, 2492–2507; details: percentage of L-DOPA; ref Biochemistry 2021, 60, 32, 2492–2507; cited from earlier work; remark: listed apart in the source
[6] = Cyclic voltammetry (redox potentials on a GCE); type: physicochemical; details: GCE (d = 2 mm)
From the text: Reduction and oxidation potentials were experimentally performed by cyclic voltammetry (CV) at biological pH 7.4, as previously described. All samples were run on a CH Instruments 600E Potentiostat in a one-compartment cell equipped with a three-electrode system arrangement. The three-electrode system included a saturated calomel electrode as the reference electrode, a platinum wire as the auxiliary electrode, and a glassy carbon electrode (GCE, d = 2 mm) as the working electrode. The GCE was polished between each sample scan with an aqueous slurry of alumina powder on a microcloth pad. The electrodes were rinsed with distilled water prior to the next scan. All scans were conducted under nitrogen for oxygen displacement and at room temperature (rt, 25 ± 1 °C). All samples were prepared as close to the scan as possible (approximately 2 min each). Each sample (5 mL) contained 0.1 mM catecholic substrate and 1 μM DMSO in 0.1 M phosphate buffer at a pH of 7.4 or 6.0. […] The cyclic voltammograms for the compounds at both pH 6.0 and 7.4 are available in Figures S40–S51.

[7] = Determination of pKa values by spectrophotometric titration; details: first catecholic deprotonation; determined spectroscopically from pH 3 to 12.5
Procedure: A buffer system utilizing five different buffers was prepared to cover the pH range of 3.0 to 12.50. A Thermo Scientific Orion Star A211 pH meter was used to measure and determine the pH of each buffer. The pH meter was calibrated using three- and four-point calibration with pH values of 4.00, 7.01, and 10.01 and 4.00, 7.01, 10.01, and 12.00, respectively.
The buffer systems were prepared as previously described and included: NaOAc/HOAc buffers (C = 0.1 M; I = 0.1 M) were used to cover the pH range of 3.0 to 5.50. KH2PO4/K2HPO4 buffers (C = 0.05 M; I = 0.1 M) were used to cover the pH range of 6.00 to 8.00. CHES buffers (C = 0.05 M; I = 0.1 M) were used to cover the pH range of 8.50 to 10.50. Na2HPO4/Na3PO4 buffers (C = 0.05 M; I = 0.1 M) were used to cover the pH range of 11.00 to 12.00. KCl buffers (C = 0.1 M; I = 0.1 M) were used to cover the pH range of 12.00 to 12.50.
The absorbance spectra of the compounds were determined at each pH as previously described. Briefly, a stock solution was prepared for each compound by weighing 2 mg of the compound using a high-precision analytical balance. Each compound was then dissolved in DMSO at a concentration of 10 mM. A UV-transparent 96-well microplate (Corning clear acrylic 96-well UV plate with a UV-transparent flat bottom) was loaded with 196 μL of buffer solution and 4 μL of the catechol stock in each well to get a final concentration of 200 μM. DMSO (4 μL) was added to 196 μL of the appropriate buffer to produce a blank solution for each buffer.
The 96-well plate was loaded into the microplate reader and incubated at 30 °C and shaken for 10 min before the reading. Absorbance readings were completed by using a Synergy HTX 15032517 microplate reader. Each well was read at wavelengths from 210 to 600 nm with 2-nm increments for each scan over a duration of 60 min.
The data were analyzed as previously described. Raw UV-spectra scans were exported to the Excel program. They were first processed by subtracting the reading of the blank solutions from the reading of each compound at the corresponding wavelengths. […] Finally, the spectral difference between the pH 3.0 buffer and the spectra at all other pH values was plotted. Additionally, the spectral difference between the pH 4.0 buffer and the spectra at all other higher pH values was plotted. The wavelengths for the maximum positive and negative absorbance were determined by using the graphs of the spectral difference plots, both for the pH 3.0 and pH 4.0 spectral difference plots. The absolute maximum positive and total absorbance differences at these chosen wavelengths were plotted against the pH of each buffer. The data were imported into the Origin 6.0 program, and the pK a values were determined with a nonlinear regression using eq : 1 Absorbancetotal=εHA−εA−[10^(pH−pKa)]/1+10^(pH−pKa)×[St]
εHA is the extinction coefficients of the acid form of the compound, and εA ^– is the extinction coefficient of the base form of the compound (i.e., the minima and maxima of the absorbance difference curve, respectively), and [S t] is the total compound concentration.

[8] = tested on: O=C(O)CCc1ccc(O)c(O)c1; experiment: UV-visible steady-state assay of L-DOPA 2,3-dioxygenase (ShjDDO); type: biochemical, Streptomyces hygroscopicus jingganensis; details: other: S. hygroscopicus jingganensis enzyme
Procedure: (§1) Purified, reconstituted L-DOPA 2,3-dioxygenases were assessed for activity by monitoring the cleavage of catecholic substrates using UV–visible spectroscopy. 3,4-Dihydroxyhydrocinnamic acid (DHHCA, 3) was purchased from Sigma-Aldrich. 6-CyanoDHHCA (5) and 6-bromoDHHCA (4) were synthesized as described above.
(§2) Molecular oxygen (AirGas) was bubbled directly into the reaction buffer through a glass-bonded silica gas diffuser (Bubblemac Industries, Inc.) or as a gas mixture blended with air (AirGas). Solutions were bubbled with oxygen for several minutes prior to use and for the duration of the experiment. To determine the K M for oxygen (i.e., K MO2), L-DOPA 2,3-dioxygenases (0.25–4.0 μM) were reacted with a saturating concentration of the catecholic substrate DHHCA/6-X-DHHCA derivatives (2–10× the K M sufficient to achieve k cat) and various oxygen concentrations (21–100% or 270–1300 μM at 22 °C). The concentration of oxygen was varied by changing the percentage of oxygen in the blend using a galvanic oxygen sensor and oxygen monitor (AirGas) and then bubbling solutions, as described above. Molecular oxygen percentages were converted to molar concentrations using a reference temperature of 22 °C. The reaction of L-DOPA 2,3-dioxygenases with DHHCA/6-X-DHHCA derivatives as a function of oxygen concentration was followed by the appearance of the steady-state cleavage product by using UV–visible spectroscopy.
(§3) The extinction coefficients for steady-state cleavage products of DHHCA and synthetic 6-X-DHHCA derivatives were determined by reacting various concentrations of DHHCA/6-X-DHHCA derivatives at 22 °C with a 10-fold stoichiometric excess of enzyme (quantified by Fe^II–see Reconstitution) in 50 mM HEPES buffer with 154 mM NaCl at pH 7.5, bubbled with 100% oxygen to a final concentration of 780–910 μM, depending on the volume of oxygenated buffer that comprised the reaction (60–70%). Substrate solutions were prepared from authentic synthetic standards using an analytical balance, and reactions were run to completion as assessed by the appearance of the steady-state product. The λmax and extinction coefficients of DHHCA, 6-cyanoDHHCA, and 6-bromoDHHCA were determined herein as ε380 = 40 740 ± 820 M^–1cm^–1, ε385 = 33 256 ± 484 M^–1cm^–1, and ε380 = 35 282 ± 1190 M^–1cm^–1, respectively (Figure S52).
(§4) Steady-state kinetic data were obtained through a UV–visible spectroscopic assay. Initial rates were obtained from the slopes of the linear regions of the progress curves and plotted versus substrate concentration to yield a hyperbola, which was analyzed using the Michaelis–Menten expression and nonlinear least-squares fitting (NLSF) with Origin 6.0 (Microcal). Two possible derivations of the Michaelis–Menten expression were used: 1) the traditional expression y = k cat × x/(K M + x), where y is Rate/E 0 or the rate of product formation (μM/min) divided by the starting enzyme concentration (μM), x is substrate concentration (μM) and k SP (also known as k cat × K M ^–1)–that is, the second-order rate constant of enzyme and substrate–is extracted from the fitted constants; or 2) the alternative derivation that extracts k SP and k cat directly from the fit: y = (k SP × x)/((1 + k SP × x)/k cat), and where y is Rate/E 0 or the rate of product formation (μM/min) divided by the starting enzyme concentration (μM), x is substrate concentration (μM), k SP is equivalent to k cat×K M ^–1, and K M is extracted from k cat/k cat×K M ^–1.

[9] = tested on: N#Cc1cc(O)c(O)cc1CCC(=O)O; experiment: as above; type: biochemical, Streptomyces hygroscopicus jingganensis; details: other: S. hygroscopicus jingganensis enzyme
Procedure: as §1, §2, §3, §4

[10] = tested on: O=C(O)CCc1cc(O)c(O)cc1Br; experiment: as above; type: biochemical, Streptomyces hygroscopicus jingganensis; details: other: S. hygroscopicus jingganensis enzyme
Procedure: as §1, §2, §3, §4

[11] = substrate: O=C(O)CCc1cc(O)c(O)cc1Br; experiment: UV-visible steady-state assay of L-DOPA 2,3-dioxygenase (LmbB1); type: biochemical, Streptomyces lincolnensis; details: other: S. lincolnensis enzyme, pH 7.5, 22 °C
Procedure: as §1
as §2, with “Molecular oxygen percentages were converted to molar concentrations using a reference temperature of 22 °C. The reaction of L-DOPA 2,3-dioxygenases with DHHCA/6-X-DHHCA derivatives as a function of oxygen concentration was followed by the appearance of the steady-state cleavage product by using UV–visible spectroscopy.” left out
as §3, with “S52). […]” for “S52).”

[12] = substrate: O=C(O)CCc1ccc(O)c(O)c1; experiment: as above; type: biochemical, Streptomyces lincolnensis; details: other: S. lincolnensis enzyme, pH 7.5, 22 °C
Procedure: as §1
as §2, with “Molecular oxygen percentages were converted to molar concentrations using a reference temperature of 22 °C. The reaction of L-DOPA 2,3-dioxygenases with DHHCA/6-X-DHHCA derivatives as a function of oxygen concentration was followed by the appearance of the steady-state cleavage product by using UV–visible spectroscopy.” left out
as §3, with “S52). […]” for “S52).”

[13] = substrate: N#Cc1cc(O)c(O)cc1CCC(=O)O; experiment: as above; type: biochemical, Streptomyces lincolnensis; details: other: S. lincolnensis enzyme, pH 7.5, 22 °C
Procedure: as §1
as §2, with “Molecular oxygen percentages were converted to molar concentrations using a reference temperature of 22 °C. The reaction of L-DOPA 2,3-dioxygenases with DHHCA/6-X-DHHCA derivatives as a function of oxygen concentration was followed by the appearance of the steady-state cleavage product by using UV–visible spectroscopy.” left out
as §3, with “S52). […]” for “S52).”

[14] = saturating catecholic substrate, 22 °C, pH 7.5

In the case of `N#Cc1cc(O)c(O)cc1CCN` [Compound 6-cyanoDA], the “kSP, O2 (μM^-1 min^-1) at pH 7.5 relative to L-DOPA x 100 for LmbB1” value [1] is listed as 16%, the “Catecholic pKa value relative to L-DOPA x 100” value [2] is listed as 80% and the “pK a value of dopamine counterpart” value ([2]; similarly 6-substituted dopamine) is listed as 7.03 ± 0.06. For the same molecule, the “E1/2 (mV) at pH 7.4 relative to L-DOPA x 100” value [3] was 129%, the “kSP, O2 (μM^-1 min^-1) at pH 7.5 relative to L-DOPA x 100 for ShjDDO” value [4] was 3% and the “CSEV (Å^3) relative to L-DOPA x 100” value [5] was 94%.

For `NCCc1ccc(O)c(O)c1` [Dopamine (DA, 2), dopamine], the “(E p)a Oxidation” value ([6]; pH 6.0) was 354 mV, the “(E p)c Reduction” value ([6]; pH 6.0) was 84 mV and the E1/2 ([6]; pH 6.0) was 219 mV. For the same molecule, the Ipa/Ipc ([6]; pH 6.0) was 2.89, the ΔE p ([6]; pH 6.0) was 270 mV and the “(E p)a Oxidation” value ([6]; pH 7.4) was 178 mV. For the same molecule, the “(E p)c Reduction” value ([6]; pH 7.4) was 54 mV, the E1/2 ([6]; pH 7.4) was 116 mV and the Ipa/Ipc ([6]; pH 7.4) was 1.32. For the same molecule, the ΔE p ([6]; pH 7.4) was 124 mV, the “kSP, O2 (μM^-1 min^-1) at pH 7.5 relative to L-DOPA x 100 for LmbB1” value [1] was 6% and the “Catecholic pKa value relative to L-DOPA x 100” value [2] was 102%. The pK a value [7] was 8.99 ± 0.05, the “E1/2 (mV) at pH 7.4 relative to L-DOPA x 100” value [3] was 58% and the “CSEV (Å^3) relative to L-DOPA x 100” value [5] was 84%.

In the case of “L-DOPA 2,3-dioxygenase from S. hygroscopicus jingganensis (ShjDDO) (Streptomyces hygroscopicus subsp. jinggangensis 5008)”, the Km ([8]; pH 7.5, 22 °C) is reported as 422 ± 94 µM, the Km [8, 14] is reported as 1059 ± 246 µM and the Km ([9]; pH 7.5, 22 °C) is reported as 228 ± 53 µM. It also gave a Km [9, 14] of 1019 ± 236 µM, a Km ([10]; pH 7.5, 22 °C) of 926 ± 169 µM and a Km [10, 14] of 759 ± 66 µM.

B1: L-DOPA 2,3-dioxygenase from S. lincolnensis (LmbB1) (Streptomyces lincolnensis) (protein)
chain: MPSVKSMPPVSVHHVGVQTADLDNSISWYQEFFGCTVSWTLDTFSALTHSRLPGIERLAELRYGDVRFHHIGVKSGAAERSPAEANQFQHVCFAVGSPTELEAWRSRWLELYARGRWTFAVPERATDIDVDKDGVRSFYALDPNGLEYEFTYVPDGPR
Work on B1 yielded a Km [11] of 205 ± 24 µM, a Km [12] of 922 ± 152 µM and a Km [13] of 131 ± 16 µM.
